Measurements reported in patent US20130171161A1, “METHOD AND COMPOSITION FOR THE TREATMENT OF DISEASES CAUSED BY OR ASSOCIATED WITH HIV” (priority 2010, published 2013).
Read-outs that look alike come from different tables or passages of the source.

Experiments:
[1] = tested on: HIV-1 LAI; experiment: Inhibition of HIV-reverse transcriptase activity in supernatant of infected human peripheral blood mononuclear cells, Example 2; format: cell-based; conditions: 8 nM; added 15-30 minutes after infection
Method: The assessment of antiretroviral activity of ultra low-dose rabbit polyclonal antibodies to CD4 (a mixture of homoeopathic dilutions C12+C30+C50) (hereinafter referred to as “ultra low-dose antibodies to CD4) was carried out using human peripheral blood mononuclear cells infected with the strain HIV-1 LAI in vitro. Azidothymidine (Sigma—AZ169-100 mg, lot 107K1578) was used as a comparator product.
Human peripheral blood mononuclear cells were isolated from blood of a seronegative healthy donor by centrifugation on a Ficoll-Hypaque density gradient. The cells were stimulated for 3 days with 1 μg/mL of phytohemagglutinin P and 5 IU/mL of recombinant human interleukin-2 in RPMI1640 (DIFCO) medium supplemented with 10% fetal calf serum (the complement was removed by heating for 45 minutes at 56° C.), 1% antibiotic solution (PSN Gibco containing 50 μg/mL of penicillin, 50 μg/mL of streptomycin and 100 μg/mL of neomycin). […]
The products' efficiency was established by the inhibition of HIV replication which was assessed by HIV-reverse transcriptase activity in the supernatant fluid from human peripheral blood mononuclear cells using the HIV RT RetroSys kit made by INNOVAGEN (Lot 10-059C). […]

[2] = tested on: HIV-1 LAI; experiment: Inhibition of HIV replication (p24 level) in human peripheral blood mononuclear cells infected in vitro, Example 1; format: cell-based; conditions: Human immunodeficiency virus 1, PBMC; 1000 nM added 24 hours before infection; day 7; read-out: inhibition of HIV replication (p24 in supernatant)
Method: The assessment of antiretroviral activity of ultra low-dose of rabbit polyclonal antibodies to CD4 receptor (a mixture of homoeopathic dilutions C12+C30+C50) (ULD Ab CD4)), was carried out using human peripheral blood mononuclear cells infected with the strain HIV-1 LAI in vitro.
Human peripheral blood mononuclear cells were isolated from blood of a seronegative healthy donor by centrifugation on a Ficoll-Hypaque density gradient. The cells were stimulated for 3 days with 1 μg/mL of phytohemagglutinin P and 5 IU/mL of recombinant human interleukin-2.
In order to assess antiretroviral activity the products were placed in a well containing 100 μL of activated mononuclears 24 hours before or 15 min after cell infection with the strain HIV-1-LAI at the dose of 100 TCID50 (50 μL inoculum of the strain HIV-1-LAI). Before adding to a well, ULD Ab CD4 (12.5 μL) or reference azidotimidine (1000 nM) were mixed with RPMI1640 medium (DIFCO) to achieve a final probe volume of 50 μL
The supernatant fluids were collected on day 7 after infection of cells. The products' activity was measured by the inhibition of HIV replication which was assessed by the level of core nucleocapsid protein p24 in the supernatant fluid from human peripheral blood mononuclear cells using Retrotek Elisa kit.

[3] = tested on: HIV-strain-1-LAI; experiment: Inhibition of HIV replication (p24 content) in infected mononuclear cells of human blood, Example 3; format: cell-based, HIV-1; conditions: 1000 nM, day 7, read-out: inhibition of HIV reaction (p24 in supernatant)
Text: The experimental study involved the affine purified rabbit polyclonal antibodies to the human IFN-gamma. The affine purified rabbit polyclonal antibodies to the human gamma interferon were used for development of the (potentiated) antibodies to the gamma interferon in a very-low-dose in the form of serial dilutions C12+C30+C50, obtained in accordance with a homeopathic technology (hereinafter referred to as Ab to IFN-γ in VLD).
Antiviral activity of the composition under review Ab to IFN-γ in VLD and azidothymidine (preparation, based on an active substance of Zidovudine) was studied within the context of mononuclear cells of the human blood, infected in vitro with the HIV-strain-1-LAI. The efficiency of replicating inhibition of HIV was assessed according to the content of a main nucleocapsid protein p24 HIV in the supernatant fluid of the mononuclear cells of the human peripheral blood. […]
Supernatant fluid of the cell culture was collected on the seventh (7) day subsequent to the contamination. The efficiency of the preparations was assessed according to the inhibition of HIV reaction, in its turn assessed in accordance with the content of a main nucleocapsid protein p24 HIV in the supernatant cells by method of IFA, immunofluorescent assay (Retrotek Elisa kit).

With Cc1cn([C@H]2C[C@H](N=[N+]=[N-])[C@@H](CO)O2)c(=O)[nH]c1=O [Azidothymidine] the “Inhibition of HIV-reverse transcriptase activity (% of control) Day 7” value [1] was 58 ± 7 % of control, the inhibition at 1 µM [2] was 99% and the inhibition at 1 µM ([3]; Human immunodeficiency virus 1, 168 h, introduced 24 prior to contamination) was 99%. The inhibition at 1 µM ([3]; Human immunodeficiency virus 1, introduced 15 minutes after contamination) was 99 ± 1%.
